Test results as given in patent US11696916B2, “Carboxamide-pyrimidine derivatives as SHP2 antagonists” (Merck Patent GmbH, priority 2019, dated 2023).
pIC50: −log10 of the molar value.

Columns and labels:
[1] = system: pERK level in KYSE520 cells; assay: p-Erk cellular assay in KYSE520 (Mesoscale); format: cell-based; details: Homo sapiens, KYSE-520, 2 h, 2 h compound incubation, read-out: pERK1/2 in KYSE520 IC50
Protocol: The effect of SHP2 inhibitors on pERK level was assessed using phospho-specific antibody using Mesoscale quantification platform. For measuring change in pERK levels using mesoscale, 30,000 cells of MDA MB468 and KYSE520 cells were plated in 96-well tissue culture treated plate in 175 ul volume of media. After an overnight incubation at 37° C., various SHP2 inhibitors were added in different concentration to each well maintaining duplicate wells across plates and incubated with compounds for 2 h at 37° C. followed by a wash with ice cold PBS buffer. The cells were then lysed in lysis buffer and processed and analyzed for p-ERK/ERK as per manufacturer's instructions (Mesoscale discovery, cat No. K15107D-3).

[2] = target: Full length SHP2 protein (Recombinant Human SHP-2) (Homo sapiens (Human), UniProt Q06124); assay: SHP2 biochemical assay (DiFMUP, activating peptide IRS1_2pY); details: DiFMUP substrate, 60 min RT
Protocol: The inhibition of SHP2 by compounds of the invention was monitored using the surrogate substrate DiFMUP after protein activation by a peptide bearing two appropriately spaced phosphotyrosine. […] The generation of the DiFMU product by activated SHP2 was monitored through Fluorescence measurement with a PerkinElmer Envision reader. The inhibitor dose response curves were analyzed with Genedata Screener.

[3] = Pharmacokinetics in mouse; format: in vivo; details: for Cmax Normalized to 1 mgk / AUC (normalized 1 mpk): female CD1 mice; for Cmax Normalized to 1 mgk: normalized to 1 mg/kg; for AUC (normalized 1 mpk): normalized to 1 mpk; for Exposure compared to SHP-099: mouse PK
Protocol: Female CD1 mice (N=3) received a single oral (gavage) or a single intravenous (bolus) injection of compound. […] Consecutive blood samples were taken sub-lingually under isofluorane inhalation from animals after 0.083 (IV), 0.25, 0.5, 1, 2, 4, 6 and 24 h and were further processed to obtain plasma. Samples were protein precipitated and analyzed by LC/MS/MS.

Chain of Full length SHP2 protein (Recombinant Human SHP-2) (Q06124 2-593): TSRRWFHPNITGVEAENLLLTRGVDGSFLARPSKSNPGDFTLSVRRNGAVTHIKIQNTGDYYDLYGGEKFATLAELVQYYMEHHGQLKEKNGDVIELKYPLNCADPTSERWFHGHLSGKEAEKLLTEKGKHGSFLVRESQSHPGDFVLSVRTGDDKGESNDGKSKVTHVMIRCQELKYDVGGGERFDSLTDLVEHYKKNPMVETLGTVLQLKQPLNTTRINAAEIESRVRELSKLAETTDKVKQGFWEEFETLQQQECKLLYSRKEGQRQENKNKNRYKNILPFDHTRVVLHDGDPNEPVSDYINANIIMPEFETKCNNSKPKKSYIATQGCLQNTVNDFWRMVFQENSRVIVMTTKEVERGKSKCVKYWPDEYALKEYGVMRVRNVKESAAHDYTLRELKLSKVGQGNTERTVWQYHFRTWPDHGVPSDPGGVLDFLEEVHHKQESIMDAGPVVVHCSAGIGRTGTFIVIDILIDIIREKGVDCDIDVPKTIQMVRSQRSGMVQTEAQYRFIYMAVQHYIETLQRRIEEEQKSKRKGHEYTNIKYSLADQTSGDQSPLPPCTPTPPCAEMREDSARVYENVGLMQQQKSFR

Structure (SMILES) | pIC50 [1] | pIC50 [2] | also measured
Cc1nc(N2CCC3(CC2)Oc2ncccc2[C@H]3N)nc(C(N)=O)c1-c1cccc(Cl)c1Cl [Compound 124, (4M)-2-[(3R)-3-amino-3H-spiro[furo[2,3-b]pyridine-2,4′-piperidin]-1′-yl]-5-(2,3-dichlorophenyl)-6-methylpyrimidine-4-carboxamide] | 6.57 | – | –
NC(=O)c1nc(N2CCC3(CC2)Oc2ncccc2[C@@H]3N)nc(N)c1-c1cccc(Cl)c1Cl (atropisomer, axis not shown; (M)) [Compound 130, (4M)-6-amino-2-[(3R)-3-amino-3H-spiro[furo[2,3-b]pyridine-2,4-piperidin]-1-yl]-5-(2,3-dichlorophenyl)pyrimidine-4-carboxamide] | 5.65 | – | –
CC1(N)CCN(c2cnc(-c3cccc(Cl)c3Cl)c(N)n2)CC1 [SHP-099, SHP099, reference compound] | – | – | Cmax Normalized to 1 mgk [3]: 48 ng/mL; AUC (normalized 1 mpk) [3]: 129 ng·h/mL
Cc1nc(N2CCC3(CC2)CO[C@@H](C)[C@H]3N)nc(C(N)=O)c1-c1cccc(Cl)c1Cl (single isomer, unassigned) [Compound 95] | – | – | Cmax Normalized to 1 mgk [3]: 150 ng/mL; AUC (normalized 1 mpk) [3]: 1214 ng·h/mL; Exposure compared to SHP-099 [3]: higher exposure
NC(=O)c1nc(N2CCC3(CC2)Cc2ccccc2[C@H]3N)nc(N)c1-c1cccc(Cl)c1Cl (single isomer, unassigned) [Compound 117] | 9.00 | – | –
NC(=O)c1nc(N2CCC3(CC2)Oc2ncccc2C3N)nc(N)c1-c1cccc(Cl)c1Cl (single isomer, unassigned) [Compound 128] | 6.79 | – | –
NC(=O)c1nc(N2CCC3(CC2)Cc2ccccc2[C@H]3N)nc(N)c1-c1cccc(Cl)c1Cl (atropisomer, axis not shown; (M)) [Compound 118, (5M)-6-amino-2-[(1S)-1-amino-1,3-dihydrospiro[indene-2,4′-piperidin]-1′-yl]-5-(2,3-dichlorophenyl)pyrimidine-4-carboxamide] | 6.94 | – | –
CC1(N)CCN(c2nc(N)c(-c3cccc(Cl)c3Cl)c(C(N)=O)n2)CC1 [Compound 27, (4P)-6-amino-2-(4-amino-4-methylpiperidin-1-yl)-5-(2,3-dichlorophenyl)pyrimidine-4-carboxamide] | – | – | Cmax Normalized to 1 mgk [3]: 48 ng/mL; AUC (normalized 1 mpk) [3]: 230 ng·h/mL; Exposure compared to SHP-099 [3]: higher exposure

More lines, main results first:

pIC50 [1] | pIC50 [2] | Structure (SMILES) | also measured
– | 5.36 | Cc1nc(N2CCC3(CC2)CC(F)(F)C[C@H]3N)nc(C(N)=O)c1-c1cccc(Cl)c1Cl (atropisomer, axis not shown; (P)) [Compound 97, (5P)-2-[(1R)-1-amino-3,3-difluoro-8-azaspiro[4.5]decan-8-yl]-5-(2,3-dichlorophenyl)-6-methylpyrimidine-4-carboxamide] | –
– | 4.80 | C[C@@H]1OCC2(CCN(c3nc(N)c(-c4cccc(Cl)c4Cl)c(C(N)=O)n3)CC2)[C@@H]1N (atropisomer, axis not shown; (M)) [Compound 67, (5M)-6-amino-2-[(3S,4S)-4-amino-3-methyl-2-oxa-8-azaspiro[4.5]decan-8-yl]-5-(2,3-dichlorophenyl)pyrimidine-4-carboxamide] | –
7.68 | – | Cc1nc(N2CCC3(CC2)Cc2ccccc2[C@H]3N)nc(C(N)=O)c1-c1cccc(Cl)c1Cl (atropisomer, axis not shown; (M)) [Compound 119, (M)-2-[(1S)-1-amino-1,3-dihydrospiro[indene-2,4′-piperidin]-1′-yl]-5-(2,3-dichlorophenyl)-6-methylpyrimidine-4-carboxamide] | –
– | 7.21 | Cc1nc(N2CCC3(CC2)CC(F)(F)C[C@H]3N)nc(C(N)=O)c1-c1cccc(Cl)c1Cl (atropisomer, axis not shown; (M)) [Compound 96, (5M)-2-[(1R)-1-amino-3,3-difluoro-8-azaspiro[4.5]decan-8-yl]-5-(2,3-dichlorophenyl)-6-methylpyrimidine-4-carboxamide] | –
– | 7.28 | C[C@@H]1OCC2(CCN(c3nc(N)c(-c4cccc(Cl)c4Cl)c(C(N)=O)n3)CC2)[C@@H]1N (atropisomer, axis not shown; (P)) [Compound 66, (5P)-6-amino-2-[(3S,4S)-4-amino-3-methyl-2-oxa-8-azaspiro[4.5]decan-8-yl]-5-(2,3-dichlorophenyl)pyrimidine-4-carboxamide] | –
